Results from paper PMC3578829, “A Small Molecule (Pluripotin) as a Tool for Studying Cancer Stem Cell Biology: Proof of Concept” (PLoS ONE, 2013).

Tests used:
HCC-2998 = experiment: Cell growth after five day exposure; format: cell-based; conditions: 0.1 µM added day 1, harvested 5 days later
Protocol: (§1) Five day exposures were conducted.

HT29 [1] = experiment: Cell growth after five day exposure; format: cell-based; conditions: 0.1 µM added day 1, harvested 5 days later
Protocol: as §1

HCT-116 [2] = experiment: Cell growth after five day exposure; format: cell-based; conditions: 0.1 µM added day 1, harvested 5 days later
Protocol: as §1

HCT-15 [3] = experiment: Cell growth after five day exposure; format: cell-based; conditions: 0.1 µM added day 1, harvested 5 days later
Protocol: as §1

HCT-116 [4] = experiment: Cell cycle analysis; format: cell-based; conditions: harvested day 5
Protocol: Approximately 5×10^6 cells were washed with PBS, resuspended in 5 ml of 4°C 70% ethyl alcohol (ETOH) and then incubated at 4°C for 30 min. The sample was washed again before the addition of 0.5 ml PBS containing 0.2 mg/ml of RNAse A. The sample was then incubated at 37°C for 15 minutes. Next, 0.5 ml propidium iodide (0.05 mg/ml in PBS) was added and incubated at 4°C in the dark for 15 min. The sample was then analyzed on the FACScan (Becton Dickinson, San Jose, CA) flow cytometer. Modfit software evaluated DNA content with an automatic module to determine the fraction of cells in the cell cycle compartments.

HCT-15 [5] = experiment: Limiting dilution tumorigenicity, s.c. xenograft without protein support; format: in vivo, NOD.SCID mice; conditions: HCT-15 treated 5 days with 0.1 µM SC-1
Protocol: as §1
(§2) Six week old female NOD.SCID mice were randomly assigned to each of 20 treatment arms (n = 5/group). Treated and control colon tumor lines were enzymatically harvested and counted prior to dilution in RPMI 1640 (at 10, 100, 1,000, 10,000 cells/inoculum) for subcutaneous injection into the axillary region using a volume of […]. Positive control groups were established such that tumor formation occurred in all mice in approximately one week thus confirming that all tumor lines studied were tumorigenic. Cell inocula for the positive control groups ranged from 1×10^6 to 2.5×10^6. Cell viability of the cell stocks was assessed by trypan blue exclusion prior to dilution for injection and was routinely found to be >95%. Tumor formation was monitored weekly using caliper measurements and the tumor mass was calculated as weight in mg = 1/2×(tumor length)×(tumor width)^2. All experiments were terminated at 120 days or when tumor weight exceeded 2000 mg for any individual mouse. In selected studies, tumor cells were resuspended in Matrigel (50% concentration, BD Biosciences) prior to injection.

KM12 = experiment: as above; format: in vivo, NOD.SCID mice; conditions: KM12 treated 5 days with 0.1 µM SC-1
Protocol: as §1, §2

HT29 [6] = experiment: Sphere formation assay (5% FBS); format: cell-based; set-up: key: Y indicates the presence of spheres following SC-1 treatment
Protocol: (§3) The 7 colon tumor lines were seeded in […] tissue culture treated dishes (Falcon) at low density (62,500 cells/ml) in complete media containing 5% FBS one day prior to addition of 0.1 µM SC-1 (final cell concentration 31,250 cells/ml). Photomicrographs were prepared on day 1 and day 5 following compound treatment utilizing a Zeiss XM inverted microscope and CCD cooled-camera imaging system. Nonadherent spheres were defined as floating, circular structures with well defined borders. Occasionally, exceptionally large spheres re-adhered to the tissue culture surface. Aggregates of floating cells or grape-like clusters were not considered spheres.

HCT-116 [7] = experiment: Sphere formation assay (5% FBS); format: cell-based; set-up: key: Y indicates the presence of spheres following SC-1 treatment
Protocol: as §3

COLO 205 = experiment: Sphere formation assay (5% FBS); format: cell-based; set-up: key: Y indicates the presence of spheres following SC-1 treatment
Protocol: as §3

colon tumor lines [8] = conditions: five day exposure to 0.1 µM SC-1
Protocol: In all experiments, each tumor line was cultured in 60 mm^2 tissue culture treated dishes at an initial concentration of 62,500/ml (total 4 ml) before addition of 0.1 µM SC-1 or an equivalent amount of diluent (DMS0) the next day. Five day exposures were conducted. The final concentration utilized for treatment for all tumor lines was determined by evaluating a range of SC-1 concentrations (0.01 to 10 µM) for sphere formation and any cytotoxic effects in the HCT-116 tumor line.
*Each colon cell line was seeded on day 0 with 0.25 x 10^6 cell/60 mm^2 Petri dish. Compound (0.1 µM) was added on day 1 and cells were enzymatically harvested 5 days later.

HT29 [9] = experiment: FACS analysis of putative CSC surface markers; format: cell-based; set-up: key to Change in Surface Marker Expression: Y indicates increased putative surface marker expression using the panel of 6 antibodies described in the Material and Methods
Excerpt: (§4) A BD FACsAria (BD Biosciences, San Jose, CA) was utilized for FACS analysis according to standard procedures. The instrument was equipped with a 488 nm 100 mW blue laser, a 638 nm 30 mW red laser, and a 405 nm 50 mW violet laser. The software package Diva 5.0 (BD Biosciences) was used for collection and analysis of data. The alignment of the three lasers in the flow cell was verified prior to running tumor cell samples by running Rainbow Beads (Spherotech). The six colors being used in the analysis were then compensated to account for spectral overlap emitted by the fluorochromes within each laser as well as across the lasers using a semi-automated process. This was done using compensation beads (BD Biosciences) that were coated with anti-mouse antibodies. The beads were incubated with each individual antibody used in the six-color panel for 15 min at room temperature. An unstained tube was also prepared. The unstained beads along with beads stained for each fluorochrome were run individually, recording 5000 events. The data was then run through the Diva software compensation matrices and the amount of “spectral bleed” from other fluorochromes into the fluorochrome of interest’s channel was determined and automatically compensated.
(§5) Treated and untreated cells (1×10^6 cells/condition) were harvested with trypsin EDTA (Invitrogen), washed, and then labeled with a six antibody cocktail (antibodies against the following epitopes: CD44, CD24, CD133, CD326, CD166, and P-glycoprotein in PBS without calcium and magnesium supplemented with 2% FBS) or appropriate isotype control antibodies. An unstained control was also prepared. The specific amounts needed for each labeled antibody were determined through titration studies. All cells were incubated with antibody for 15 minutes on ice and in the dark. The cells were then washed, resuspended in buffer, and analyzed on the FACsAria. For each experimental condition, the isotype control tube was evaluated first and 10,000 events were collected. Forward vs. side scatter gates were then established to eliminate likely debris. Further gating was determined for each conjugated isotype control antibody such that 1% of the population was considered a positive staining event. Cells stained with specific labeled antibodies were then evaluated and 10,000 events collected.

SW-620 = experiment: FACS analysis of putative CSC surface markers; format: cell-based; set-up: key to Change in Surface Marker Expression: Y indicates increased putative surface marker expression using the panel of 6 antibodies described in the Material and Methods
Excerpt: as §4, §5

HCT-116 [10] = experiment: FACS analysis of putative CSC surface markers; format: cell-based; set-up: key to Change in Surface Marker Expression: Y indicates increased putative surface marker expression using the panel of 6 antibodies described in the Material and Methods
Excerpt: as §4, §5

colon tumor lines [11] = experiment: FACS analysis of CD326 and CD166, all tumor lines; format: cell-based; conditions: any of the tumor lines; five days of SC-1 treatment
Excerpt: A BD FACsAria (BD Biosciences, San Jose, CA) was utilized for FACS analysis according to standard procedures. The instrument was equipped with a 488 nm 100 mW blue laser, a 638 nm 30 mW red laser, and a 405 nm 50 mW violet laser. The software package Diva 5.0 (BD Biosciences) was used for collection and analysis of data. The alignment of the three lasers in the flow cell was verified prior to running tumor cell samples by running Rainbow Beads (Spherotech). The six colors being used in the analysis were then compensated to account for spectral overlap emitted by the fluorochromes within each laser as well as across the lasers using a semi-automated process. […] The data was then run through the Diva software compensation matrices and the amount of “spectral bleed” from other fluorochromes into the fluorochrome of interest’s channel was determined and automatically compensated.
Treated and untreated cells (1×10^6 cells/condition) were harvested with trypsin EDTA (Invitrogen), washed, and then labeled with a six antibody cocktail (antibodies against the following epitopes: CD44, CD24, CD133, CD326, CD166, and P-glycoprotein in PBS without calcium and magnesium supplemented with 2% FBS) or appropriate isotype control antibodies. […] The specific amounts needed for each labeled antibody were determined through titration studies. […]

[12] = five days of SC-1 treatment, mean±s.e.m., n = 3

Question: For `Cc1cc(Nc2ncc3c(n2)N(C)C(=O)N(c2cc(NC(=O)c4cccc(C(F)(F)F)c4)ccc2C)C3)n(C)n1` [SC-1], which “Fold Change from Initial Inocula” value (HCC-2998) is on record?
Answer: Its value is 4.

Question: What about the “Fold Change from Initial Inocula” value (HT29 [1]) of the same compound?
Answer: Its value is 17.5.

Question: And the “Fold Change from Initial Inocula” value (HCT-116 [2])?
Answer: Its value is 31.

Question: And the “Fold Change from Initial Inocula” value (HCT-15 [3])?
Answer: The value was 19.8.

Question: What about the “Distribution of cell population across the cell cycle vs control” value (HCT-116 [4]) of the same compound?
Answer: Its value is “no difference”.

Question: What about the Tumor take rate (HCT-15 [5]; 100 cells inoculated s.c.) of the same compound?
Answer: Its Tumor take rate is 0/5.

Question: And the Tumor take rate (HCT-15 [5]; 1000 cells inoculated s.c.)?
Answer: Its Tumor take rate is 0/5.

Question: What about the Tumor take rate (HCT-15 [5]; 10000 cells inoculated s.c.) of the same compound?
Answer: The Tumor take rate was 0/5.

Question: And the Tumor take rate (KM12; 100 cells inoculated s.c.)?
Answer: Its Tumor take rate is 0/5.

Question: And the Tumor take rate (KM12; 1000 cells inoculated s.c.)?
Answer: Its Tumor take rate is 0/5.

Question: And the Tumor take rate (KM12; 10000 cells inoculated s.c.)?
Answer: Its Tumor take rate is 1/5.

Question: And the Sphere formation (HT29 [6]; 0.1 µM SC-1, 5% FBS, 24 hrs)?
Answer: The Sphere formation was “uniform nonadherent spheres with well-defined borders formed”.

Question: What about the “Sphere formation” value (HT29 [6]; summary of SC-1 effects) of the same compound?
Answer: Its value is “Y”.

Question: What about the Sphere formation (HCT-116 [7]; 0.1 µM SC-1, 5% FBS, 24 hrs) of the same compound?
Answer: The Sphere formation was “uniform nonadherent spheres with well-defined borders formed”.

Question: And the “Sphere formation” value (HCT-116 [7]; summary of SC-1 effects)?
Answer: The value was “Y”.

Question: What about the Sphere formation (COLO 205; 0.1 µM SC-1, 5% FBS) of the same compound?
Answer: The Sphere formation was “sphere formation occurred in a fraction”.

Question: And the “Sphere formation” value (COLO 205; summary of SC-1 effects)?
Answer: Its value is “Y”.

Question: And the “Cell number after in vitro SC-1 treatment vs control” value (colon tumor lines [8])?
Answer: Its value is “statistically significant decrease in cell number”.

Question: What about the “Cells expressing the CD133 glycosylated epitope” value (HT29 [9]; [12]) of the same compound?
Answer: The value was 27.6±3.6 % positive.

Question: And the “Change in Surface Marker Expression” value (HT29 [9]; marker CD133+, summary of SC-1 effects)?
Answer: Its value is “Y (CD133+)”.

Question: And the CD44 subpopulation (SW-620; [12])?
Answer: Its CD44 subpopulation is 74.1±13.4 % positive.

Question: And the “Change in Surface Marker Expression” value (SW-620; marker CD44+, summary of SC-1 effects)?
Answer: The value was “Y (CD44+)”.

Question: What about the “CD44+ CD24- subpopulation” value (HCT-116 [10]; after SC-1 treatment) of the same compound?
Answer: Its value is “increased”.

Question: And the “Change in Surface Marker Expression” value (HCT-116 [10]; marker CD44+ CD24−, summary of SC-1 effects)?
Answer: Its value is “Y (CD44+ CD24−)”.

Question: And the “CD326 and CD166 surface expression” value (colon tumor lines [11])?
Answer: Its value is “No changes”.
